# Results reported in PMC7241567 (Journal of Enzyme Inhibition and Medicinal Chemistry, 2020).
# pIC50: −log10 of the molar value.
# What was measured:
# Type in all cases: biochemical
# FGFR3 = target: T1, FGFR3 (Homo sapiens, UniProt P22607); assay: Reaction Biology Kinase HotSpot radiometric kinase assay
# T1 construct: purchased Reaction Biology Corp. (Kinase HotSpot service)
# [1] = tested on: other kinases including FMS and cKit; assay: Kinase panel screening, overall selectivity; settings: 36 different kinases, single dose of 10 µM
# Protocol: Next, we investigated kinase panel screening of 7d and 7b over 36 different kinases at a single dose of 10 µM (Figure 5). […] High selectivity over cKit might be an opportunity to avoid myelosuppression toxicity, which was reported from a dual FLT3/cKit inhibitor[19–22]. It is a valuable result to secure such a kinase selectivity profile considering the similarities of the same type III receptor tyrosine kinase (FMS, cKit and FLT3).
# 3. Evaluation of IC50 and Selected Kinase Profiling
# We used Reaction Biology Corp. Kinase HotSpotSM service (www.reactionbiology.com) for IC50 determination of all compounds and kinase profile. Assay protocol: In a final reaction volume of 25 μL, Peptide substrate, [[…]], 5 µM, ATP 10 µM, FLT3(h) (5-10 […]
# mU) is incubated with 25 mM Tris pH 7.5, 0.02 mM EGTA, 0.66 mg/mL myelin basic protein, 10 mM Mg Acetate and [γ-33P-ATP] (specific activity approx. 500 cpm/pmol, concentration as required). The reaction is initiated by the addition of the Mg-ATP mix. After incubation for 40 minutes at room temperature, the reaction is stopped by the addition of 5 μL of a 3% phosphoric acid solution. 10 μL of the reaction is then spotted onto a P30 filtermat and washed three times for 5 minutes in 75 mM phosphoric acid and once in methanol prior to drying and […]
# PLK1 = target: T2, PLK1 (Homo sapiens, UniProt P53350); assay: Reaction Biology Kinase HotSpot radiometric kinase assay
# T2 construct: purchased Reaction Biology Corp. (Kinase HotSpot service)
# AKT1 = target: T3, AKT1 (Homo sapiens, UniProt P31749); assay: as above
# T3 construct: purchased Reaction Biology Corp. (Kinase HotSpot service)
# T3 sequence (P31749 whole entry): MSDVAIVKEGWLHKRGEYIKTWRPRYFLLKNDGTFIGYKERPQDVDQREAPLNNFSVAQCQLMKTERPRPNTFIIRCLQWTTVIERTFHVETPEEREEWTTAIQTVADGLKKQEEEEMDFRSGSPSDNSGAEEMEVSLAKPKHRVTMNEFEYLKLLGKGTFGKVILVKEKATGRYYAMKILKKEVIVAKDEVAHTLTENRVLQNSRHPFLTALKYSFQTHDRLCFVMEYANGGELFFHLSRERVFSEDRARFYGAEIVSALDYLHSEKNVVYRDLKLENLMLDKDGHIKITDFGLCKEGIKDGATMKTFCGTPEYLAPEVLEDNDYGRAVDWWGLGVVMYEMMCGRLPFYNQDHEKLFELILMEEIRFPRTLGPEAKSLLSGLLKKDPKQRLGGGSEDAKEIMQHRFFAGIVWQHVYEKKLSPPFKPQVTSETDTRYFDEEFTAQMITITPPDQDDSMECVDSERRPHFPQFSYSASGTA
# c-Kit = target: T4, c-Kit (Homo sapiens, UniProt P10721); assay: as above
# T4 construct: purchased Reaction Biology Corp. (Kinase HotSpot service)
# CAMKK1 = target: T5, CAMKK1 (Homo sapiens, UniProt Q8N5S9); assay: as above
# T5 construct: purchased Reaction Biology Corp. (Kinase HotSpot service)
# T5 sequence (Q8N5S9 whole entry): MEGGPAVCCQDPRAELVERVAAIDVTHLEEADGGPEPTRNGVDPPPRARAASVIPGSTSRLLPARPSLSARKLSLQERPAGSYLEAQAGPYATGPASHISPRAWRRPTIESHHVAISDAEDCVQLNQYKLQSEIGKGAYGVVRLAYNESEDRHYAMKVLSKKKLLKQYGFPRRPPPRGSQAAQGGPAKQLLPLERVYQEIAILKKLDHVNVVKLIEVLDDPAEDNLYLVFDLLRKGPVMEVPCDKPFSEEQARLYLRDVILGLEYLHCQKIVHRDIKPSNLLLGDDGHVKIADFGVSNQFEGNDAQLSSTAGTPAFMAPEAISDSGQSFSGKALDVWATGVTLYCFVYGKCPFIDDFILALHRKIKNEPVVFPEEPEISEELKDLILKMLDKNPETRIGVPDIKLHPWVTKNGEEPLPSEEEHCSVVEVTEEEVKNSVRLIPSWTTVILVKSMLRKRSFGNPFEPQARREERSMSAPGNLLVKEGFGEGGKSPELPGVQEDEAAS
# RON/MST1R = target: T6, RON/MST1R (Homo sapiens, UniProt Q04912); assay: as above
# T6 construct: purchased Reaction Biology Corp. (Kinase HotSpot service)
# T6 sequence (Q04912 25-1400): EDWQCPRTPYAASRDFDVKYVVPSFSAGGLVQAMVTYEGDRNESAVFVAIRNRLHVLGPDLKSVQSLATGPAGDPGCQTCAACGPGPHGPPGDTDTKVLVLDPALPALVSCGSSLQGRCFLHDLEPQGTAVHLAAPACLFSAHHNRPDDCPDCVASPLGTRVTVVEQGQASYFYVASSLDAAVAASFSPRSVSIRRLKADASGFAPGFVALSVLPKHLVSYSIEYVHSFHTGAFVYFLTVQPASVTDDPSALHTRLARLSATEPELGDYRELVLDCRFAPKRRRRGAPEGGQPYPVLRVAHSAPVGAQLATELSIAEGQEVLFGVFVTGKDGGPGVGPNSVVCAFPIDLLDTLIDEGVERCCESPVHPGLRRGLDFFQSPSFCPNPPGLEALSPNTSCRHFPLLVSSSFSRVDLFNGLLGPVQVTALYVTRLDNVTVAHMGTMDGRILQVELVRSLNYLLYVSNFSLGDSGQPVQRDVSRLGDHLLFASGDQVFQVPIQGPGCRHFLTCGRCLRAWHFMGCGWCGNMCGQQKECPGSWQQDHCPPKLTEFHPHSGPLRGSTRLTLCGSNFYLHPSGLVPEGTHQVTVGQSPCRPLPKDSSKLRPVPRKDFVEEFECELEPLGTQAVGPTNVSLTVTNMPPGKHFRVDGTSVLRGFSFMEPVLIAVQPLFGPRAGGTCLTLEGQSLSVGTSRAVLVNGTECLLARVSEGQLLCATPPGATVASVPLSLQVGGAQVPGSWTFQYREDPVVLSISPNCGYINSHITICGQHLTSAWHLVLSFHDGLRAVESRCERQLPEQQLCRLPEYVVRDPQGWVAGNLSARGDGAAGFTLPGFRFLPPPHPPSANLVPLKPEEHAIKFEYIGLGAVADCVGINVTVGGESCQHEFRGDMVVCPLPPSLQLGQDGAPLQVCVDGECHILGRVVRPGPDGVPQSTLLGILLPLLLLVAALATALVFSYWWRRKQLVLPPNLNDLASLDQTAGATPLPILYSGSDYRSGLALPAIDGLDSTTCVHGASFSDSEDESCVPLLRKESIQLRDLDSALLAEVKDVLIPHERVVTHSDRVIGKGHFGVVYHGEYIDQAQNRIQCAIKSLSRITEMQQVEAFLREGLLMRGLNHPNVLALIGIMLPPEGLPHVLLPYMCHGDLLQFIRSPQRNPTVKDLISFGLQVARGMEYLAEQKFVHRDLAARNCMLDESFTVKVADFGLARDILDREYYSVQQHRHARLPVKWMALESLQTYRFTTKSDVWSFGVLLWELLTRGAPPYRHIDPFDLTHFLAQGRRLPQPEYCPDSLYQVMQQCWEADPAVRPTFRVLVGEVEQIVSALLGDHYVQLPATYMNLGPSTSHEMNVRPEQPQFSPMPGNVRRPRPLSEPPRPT
# c-Src = target: T7, c-Src (Homo sapiens, UniProt P12931); assay: as above
# T7 construct: purchased Reaction Biology Corp. (Kinase HotSpot service)
# T7 sequence (P12931 whole entry): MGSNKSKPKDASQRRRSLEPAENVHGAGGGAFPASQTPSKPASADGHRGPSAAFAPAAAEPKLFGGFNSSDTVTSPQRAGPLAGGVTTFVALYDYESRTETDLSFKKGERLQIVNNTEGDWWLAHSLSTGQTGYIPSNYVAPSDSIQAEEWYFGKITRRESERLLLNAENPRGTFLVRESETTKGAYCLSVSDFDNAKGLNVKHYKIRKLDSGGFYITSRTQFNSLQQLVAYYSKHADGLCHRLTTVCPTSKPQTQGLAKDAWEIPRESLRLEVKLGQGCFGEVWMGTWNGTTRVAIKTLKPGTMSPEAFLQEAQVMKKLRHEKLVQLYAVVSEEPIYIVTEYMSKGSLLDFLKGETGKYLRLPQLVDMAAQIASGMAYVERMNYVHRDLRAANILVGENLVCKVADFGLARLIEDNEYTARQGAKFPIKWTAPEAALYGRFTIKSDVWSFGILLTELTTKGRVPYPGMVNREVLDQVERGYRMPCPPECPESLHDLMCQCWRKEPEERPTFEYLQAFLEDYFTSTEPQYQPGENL
# SYK = target: T8, SYK (Homo sapiens, UniProt P43405); assay: as above
# T8 construct: purchased Reaction Biology Corp. (Kinase HotSpot service)
# EGFR = target: T9, EGFR (Homo sapiens, UniProt P00533); assay: as above
# T9 construct: purchased Reaction Biology Corp. (Kinase HotSpot service)
# LCK = target: T10, LCK (Homo sapiens, UniProt P06239); assay: as above
# T10 construct: purchased Reaction Biology Corp. (Kinase HotSpot service)
# T10 sequence (P06239 whole entry): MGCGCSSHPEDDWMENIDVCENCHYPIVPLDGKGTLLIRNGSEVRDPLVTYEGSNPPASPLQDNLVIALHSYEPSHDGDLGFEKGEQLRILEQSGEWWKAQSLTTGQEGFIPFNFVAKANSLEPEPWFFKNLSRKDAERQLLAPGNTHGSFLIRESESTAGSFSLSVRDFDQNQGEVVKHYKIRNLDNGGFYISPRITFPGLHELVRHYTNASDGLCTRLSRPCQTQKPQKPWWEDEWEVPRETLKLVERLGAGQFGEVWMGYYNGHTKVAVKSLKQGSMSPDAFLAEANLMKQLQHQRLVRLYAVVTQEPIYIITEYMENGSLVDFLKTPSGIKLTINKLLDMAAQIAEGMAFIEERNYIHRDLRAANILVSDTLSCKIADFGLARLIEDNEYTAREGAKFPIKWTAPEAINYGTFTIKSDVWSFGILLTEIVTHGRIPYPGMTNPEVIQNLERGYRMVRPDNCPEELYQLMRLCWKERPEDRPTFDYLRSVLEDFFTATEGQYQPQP
# PKA = target: T11, PKA (Homo sapiens, UniProt P17612); assay: as above
# T11 construct: purchased Reaction Biology Corp. (Kinase HotSpot service)
# c-MET = target: T12, c-MET (Homo sapiens, UniProt P08581); assay: as above
# T12 construct: purchased Reaction Biology Corp. (Kinase HotSpot service)
# FLT3 (F594_R595 ins R) = target: T13, FLT3 (F594_R595 ins R) (Homo sapiens, UniProt P36888, INS594R); assay: Enzymatic activity against FLT3 mutants
# T13 construct: purchased Reaction Biology Corp. (Kinase HotSpot service)
# T13 sequence (P36888 with tags, fused parts or gaps INS594R limits assumed): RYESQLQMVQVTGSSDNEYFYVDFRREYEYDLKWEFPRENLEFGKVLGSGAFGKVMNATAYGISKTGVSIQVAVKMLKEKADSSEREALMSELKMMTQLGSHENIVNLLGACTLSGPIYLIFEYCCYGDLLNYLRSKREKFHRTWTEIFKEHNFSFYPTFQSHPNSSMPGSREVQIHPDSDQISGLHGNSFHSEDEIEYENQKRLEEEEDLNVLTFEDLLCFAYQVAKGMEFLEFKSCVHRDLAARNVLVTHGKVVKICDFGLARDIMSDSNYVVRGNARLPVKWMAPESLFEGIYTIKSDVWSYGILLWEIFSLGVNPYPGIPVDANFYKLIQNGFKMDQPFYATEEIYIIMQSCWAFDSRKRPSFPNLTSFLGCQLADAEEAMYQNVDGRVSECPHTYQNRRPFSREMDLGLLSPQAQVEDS
# [2] = target: T14, FLT3 (Y591_V592 ins VDFREYEYD) (Homo sapiens, UniProt P36888, INS591VDFREYEYD); assay: Enzymatic activity against FLT3 mutants
# T14 construct: purchased Reaction Biology Corp. (Kinase HotSpot service)
# LYN = target: T15, LYN (Homo sapiens, UniProt P07948); assay: Reaction Biology Kinase HotSpot radiometric kinase assay
# T15 construct: purchased Reaction Biology Corp. (Kinase HotSpot service)
# T15 sequence (P07948 whole entry): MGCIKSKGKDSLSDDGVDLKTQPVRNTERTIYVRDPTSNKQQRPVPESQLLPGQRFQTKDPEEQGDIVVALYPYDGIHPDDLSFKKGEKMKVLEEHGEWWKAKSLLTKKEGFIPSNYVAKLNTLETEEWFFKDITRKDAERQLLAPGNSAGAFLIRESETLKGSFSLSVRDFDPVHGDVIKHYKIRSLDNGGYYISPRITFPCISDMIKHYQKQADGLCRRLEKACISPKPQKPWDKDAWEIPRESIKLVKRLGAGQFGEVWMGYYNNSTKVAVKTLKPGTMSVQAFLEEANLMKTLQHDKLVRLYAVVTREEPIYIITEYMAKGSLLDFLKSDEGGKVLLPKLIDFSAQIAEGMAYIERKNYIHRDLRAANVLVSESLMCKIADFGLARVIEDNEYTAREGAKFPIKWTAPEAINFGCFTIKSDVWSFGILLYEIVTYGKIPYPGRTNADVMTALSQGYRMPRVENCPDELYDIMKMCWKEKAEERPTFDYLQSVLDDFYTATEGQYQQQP
# ERK1 = target: T16, ERK1 (Homo sapiens, UniProt P27361); assay: as above; settings: 10 µM
# T16 construct: purchased Reaction Biology Corp. (Kinase HotSpot service)
# ALK = target: T17, ALK (Homo sapiens, UniProt Q9UM73); assay: as above
# T17 construct: purchased Reaction Biology Corp. (Kinase HotSpot service)
# KDR/VEGFR2 = target: T18, KDR/VEGFR2 (Homo sapiens, UniProt P35968); assay: as above
# T18 construct: purchased Reaction Biology Corp. (Kinase HotSpot service)
# ROS/ROS1 = target: T19, ROS/ROS1 (Homo sapiens, UniProt P08922); assay: as above
# T19 construct: purchased Reaction Biology Corp. (Kinase HotSpot service)
# RIPK3 = target: T20, RIPK3 (Homo sapiens, UniProt Q9Y572); assay: as above; settings: 10 µM
# T20 construct: purchased Reaction Biology Corp. (Kinase HotSpot service)
# T20 sequence (Q9Y572 whole entry): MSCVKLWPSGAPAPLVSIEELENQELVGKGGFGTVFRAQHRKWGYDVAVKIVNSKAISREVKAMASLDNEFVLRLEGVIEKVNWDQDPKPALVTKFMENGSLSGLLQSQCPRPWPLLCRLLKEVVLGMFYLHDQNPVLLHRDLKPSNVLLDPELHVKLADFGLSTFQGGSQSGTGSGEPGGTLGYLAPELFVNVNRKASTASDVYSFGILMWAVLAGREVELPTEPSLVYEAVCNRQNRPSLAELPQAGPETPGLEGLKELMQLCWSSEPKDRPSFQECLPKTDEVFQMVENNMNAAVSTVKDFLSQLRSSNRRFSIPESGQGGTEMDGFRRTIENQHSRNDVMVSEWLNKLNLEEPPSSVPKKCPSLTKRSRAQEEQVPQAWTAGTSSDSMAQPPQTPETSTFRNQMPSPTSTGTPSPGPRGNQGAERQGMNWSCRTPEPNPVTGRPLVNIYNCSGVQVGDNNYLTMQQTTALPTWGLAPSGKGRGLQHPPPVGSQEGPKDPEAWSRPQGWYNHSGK
# MEK1 = target: T21, MEK1 (Homo sapiens, UniProt Q02750); assay: as above
# T21 construct: purchased Reaction Biology Corp. (Kinase HotSpot service)
# FMS = target: T22, FMS (Homo sapiens, UniProt P07333); assay: as above
# T22 construct: purchased Reaction Biology Corp. (Kinase HotSpot service)
structure (smiles),measurement,setting,value
"Cc1oncc1C(=O)Nc1ccc2cnc(-c3cc(N4CCN(C)CC4)cc(C(F)(F)F)c3)nc2c1 [Compound 7d, 5-methyl-N-(2-(3-(4-methylpiperazin-1-yl)-5-(trifluoromethyl)phenyl)quinazolin-7-yl)isoxazole-4-carboxamide]",inhibition at 10 µM,FGFR3,1%
same,activity on other kinases in panel (in words),[1],almost no activity
same,inhibition at 10 µM,PLK1,0%
same,inhibition at 10 µM,AKT1,5.48%
same,inhibition at 10 µM,c-Kit,0%
same,inhibition at 10 µM,CAMKK1,0%
same,inhibition at 10 µM,RON/MST1R,13.5%
same,inhibition at 10 µM,c-Src,14.6%
same,inhibition at 10 µM,SYK,22.4%
same,inhibition at 10 µM,EGFR,0%
same,inhibition at 10 µM,LCK,19.7%
same,inhibition at 10 µM,PKA,2.5%
same,inhibition at 10 µM,c-MET,13.2%
same,pIC50,FLT3 (F594_R595 ins R),6.28
same,pIC50,[2],6.14
same,inhibition at 10 µM,LYN,20.5%
same,inhibition at 10 µM,ERK1,15%
same,inhibition at 10 µM,ALK,17%
same,inhibition at 10 µM,KDR/VEGFR2,16.8%
same,inhibition at 10 µM,ROS/ROS1,14.4%
same,inhibition at 10 µM,RIPK3,12.8%
same,inhibition at 10 µM,MEK1,0%
same,inhibition at 10 µM,FMS,5.49%
